Results on 19 compounds are retold here after ChEMBL document CHEMBL5252598, “Armeniaspirol analogues disrupt the electrical potential (ΔΨ) of the proton motive force” (Bioorg Med Chem Lett, 2023).

For orientation: MIC means the smallest concentration in the dilution series that meets the test's criterion for growth inhibition. Broadly, the EC50 is the concentration giving half of the maximal effect.

Molecules are shown by their SMILES. Converted amounts (≈) assume the structure as drawn. The source made the active and inactive calls.

One experiment relates to Staphylococcus aureus. The experiment in a line: Antibacterial activity against Staphylococcus aureus USA300 assessed as bacterial growth inhibition by checkerboard assay. Format: functional.
The subject of experiment [1] is Cell membrane. The experiment is described as follows: Induction of membrane depolarization in methicillin-resistant Staphylococcus aureus USA300 assessed as measuring minimum effective concentration by DiSC3(5) dye-based fluorescence assay.
Experiment [2] relates to Cell membrane. The experiment is described as follows: Induction of membrane depolarization in methicillin-resistant Staphylococcus aureus USA300 by […] dye-based fluorescence assay. It counts as subcellular.
The test system of experiment [3] is Cell membrane. The experiment is described as follows: Induction of membrane depolarization in methicillin-resistant Staphylococcus aureus USA300 assessed as disruption of transmembrane electrical potential by DiSC3(5) dye-based fluorescence assay.
Experiment [4] relates to Escherichia coli. The experiment is described as follows: Antagonistic antibacterial activity against Escherichia coli harbouring TolC-deficient mutant assessed as fractional inhibitory concentration in presence of kanamycin by checker board assay. It counts as functional.
Experiment [5] relates to Cell membrane. The experiment is described as follows: Induction of membrane depolarization in methicillin-resistant Staphylococcus aureus USA300 assessed as disruption of transmembrane proton gradient by DiSC3(5) dye-based fluorescence assay.
The subject of experiment [6] is Bacteria. The experiment in a line: Inhibition of ATP-dependent ClpXP proteases (unknown origin).
Experiment [7] deals with Bacteria. The experiment in a line: Inhibition of ATP-dependent ClpYQ proteases (unknown origin).
Experiment [8] deals with Escherichia coli. The experiment in a line: Antibacterial activity against Escherichia coli harbouring TolC-deficient mutant assessed as fractional inhibitory concentration in presence of tetracycline by checker board assay. Format: functional.

As for `CCCCCCc1c(OC)c(Cl)cc2c1OC1(C2=O)C(Cl)=C(Cl)C(=O)N1C` (stereo not drawn), the MIC with Staphylococcus aureus is > 32 µg/mL. Moreover, the MEC with Cell membrane [1] is 4 µg/mL. This compound came in with an EC50 in the experiment with Cell membrane [2] of 2.04 µg/mL (≈ 4.71 µM).

Turning to `CCCCCCc1c(OC)c(Cl)cc2c1OC1(C2)NC(=O)C(Cl)=C1Cl` (stereo not drawn), the result in the experiment with Cell membrane [3] was Active.

`Cc1c(O)c(Cl)cc2c1OC1(C2=O)C(Cl)=C(Cl)C(=O)N1Cc1ccccc1` (stereo not drawn): in the experiment on Staphylococcus aureus, the MIC came to 32 µg/mL. In addition, in the experiment on Cell membrane [1], the MEC came out at 4 µg/mL. The compound also came in with a concentration for a half-maximal effect (EC50) with Cell membrane [2] of 3.2 µg/mL (≈ 7.54 µM).

Consider `CCCCCCc1c(O)c(Cl)cc2c1OC1(C2=O)C(Cl)=C(Cl)C(=O)N1Cc1ccc(C)cc1` (stereo not drawn), for which the FIC in the experiment with Escherichia coli [4] was >4. For the same compound, in the experiment on Staphylococcus aureus, the minimum inhibitory concentration (MIC) was 0.5 µg/mL. The MEC in the experiment on Cell membrane [1] turned out to be 0.125 µg/mL. Also, in the experiment with Cell membrane [2], the EC50 was 0.07 µg/mL (≈ 0.138 µM).

For the compound `C=CCN1C(=O)C(Cl)=C(Cl)C12Oc1c(cc(Cl)c(O)c1CCCCCC)C2=O` (stereo not drawn), in the experiment with Staphylococcus aureus, the MIC worked out at 4 µg/mL. Further, in the experiment with Cell membrane [1], the MEC came out at 0.25 µg/mL. This compound had a half-maximal effective concentration (EC50) with Cell membrane [2] of 0.23 µg/mL (≈ 0.517 µM).

As to `C=CCN1C(=O)C(Cl)=C(Cl)C12Oc1c(cc(Cl)c(O)c1C)C2=O` (stereo not drawn), the minimum inhibitory concentration (MIC) in the experiment on Staphylococcus aureus was > 32 µg/mL. Besides, the MEC with Cell membrane [1] stood at 8 µg/mL. Also, the EC50 in the experiment with Cell membrane [2] was > 8 µg/mL.

In the case of `CCCCCCc1c(O)c(Cl)cc2c1OC1(C2=O)C(Cl)=C(Cl)C(=O)N1Cc1ccccc1` (stereo not drawn), the minimum inhibitory concentration (MIC) with Staphylococcus aureus turned out to be 1 µg/mL. Also, in the experiment with Cell membrane [1], the MEC was found to be 0.5 µg/mL. The compound also yielded an EC50 in the experiment on Cell membrane [2] of 0.39 µg/mL (≈ 0.788 µM).

For `CO[C@@H]1C[C@@H](C[C@H]2CC[C@H](C)[C@H]([C@@H](C)C(=O)O)O2)O[C@]2(O[C@](C)([C@H]3CC[C@@](C)([C@@H]4O[C@@H]([C@H]5O[C@@](O)(CO)[C@H](C)C[C@@H]5C)C[C@@H]4C)O3)C[C@H]2C)[C@@H]1C`, the result in the experiment on Cell membrane [5] was Active.

Take `CCCCCCc1c(OC)c(Cl)cc2c1OC1(C2=O)C(Cl)=C(Cl)C(=O)N1CCCCCC` (stereo not drawn): the minimum inhibitory concentration (MIC) in the experiment with Staphylococcus aureus was 4 µg/mL. The MEC in the experiment on Cell membrane [1] was determined as 0.125 µg/mL. For the same compound, in the experiment with Cell membrane [2], the EC50 was determined as 0.54 µg/mL (≈ 1.07 µM). For the same compound, the inhibition entry in the experiment with Bacteria [6] and with Bacteria [7] was “inactive” each time.

Turning to `CCCCCCc1c(O)c(Cl)cc2c1OC1(C2=O)C(Cl)=C(Cl)C(=O)N1CCc1ccccc1` (stereo not drawn), the minimum inhibitory concentration (MIC) with Staphylococcus aureus turned out to be 0.5 µg/mL. In the experiment on Cell membrane [1], the MEC is 0.125 µg/mL. For the same compound, in the experiment with Cell membrane [2], the concentration giving a half-maximal response (EC50) is 0.12 µg/mL (≈ 0.236 µM).

Consider `CCCCCCCCCCCCN1C(=O)C(Cl)=C(Cl)C12Oc1c(cc(Cl)c(O)c1C)C2=O` (stereo not drawn), for which the MIC in the experiment on Staphylococcus aureus is 1 µg/mL. In addition, the MEC in the experiment with Cell membrane [1] came out at 0.25 µg/mL. Also, the EC50 with Cell membrane [2] was found to be 0.28 µg/mL (≈ 0.557 µM).

For the compound `Cc1c(O)c(Cl)cc2c1OC1(C2=O)C(Cl)=C(Cl)C(=O)N1Cc1ccc(C(F)(F)F)cc1` (stereo not drawn), in the experiment on Staphylococcus aureus, the MIC came out at 16 µg/mL. The MEC in the experiment with Cell membrane [1] came to 2 µg/mL. The same compound showed an EC50 with Cell membrane [2] of 2.45 µg/mL (≈ 4.97 µM).

As to `Cc1c(O)c(Cl)cc2c1OC1(C2=O)C(Cl)=C(Cl)C(=O)N1C` (stereo not drawn), in the experiment on Staphylococcus aureus, the minimal inhibitory concentration (MIC) was > 32 µg/mL. In addition, the MEC with Cell membrane [1] was determined as 8 µg/mL. The half-maximal effective concentration (EC50) in the experiment on Cell membrane [2] is > 8 µg/mL.

`CCCCCCc1c(O)c(Cl)cc2c1OC1(C2=O)C(Cl)=C(Cl)C(=O)N1C` (stereo not drawn): the outcome in the experiment with Cell membrane [3] was Active. Also, the figures for the FIC with Escherichia coli [4] and in the experiment with Escherichia coli [8] were >4 and 0.656, respectively. In addition, the MIC in the experiment with Staphylococcus aureus stood at 4 µg/mL. Besides, the MEC in the experiment with Cell membrane [1] was 0.5 µg/mL. The EC50 in the experiment on Cell membrane [2] stood at 0.42 µg/mL (≈ 1 µM).

As for `CCCCCCc1c(O)c(Cl)cc2c1OC1(C2=O)C(Cl)=C(Cl)C(=O)N1Cc1ccc(C(F)(F)F)cc1` (stereo not drawn), in the experiment with Staphylococcus aureus, the MIC turned out to be 2 µg/mL. Further, in the experiment with Cell membrane [1], the MEC was 0.125 µg/mL. In addition, the concentration for a half-maximal effect (EC50) in the experiment on Cell membrane [2] turned out to be 0.3 µg/mL (≈ 0.533 µM).

Consider `CCCCCCN1C(=O)C(Cl)=C(Cl)C12Oc1c(cc(Cl)c(O)c1C)C2=O` (stereo not drawn), for which, in the experiment with Staphylococcus aureus, the minimum inhibitory concentration (MIC) stood at 4 µg/mL. Further, the MEC with Cell membrane [1] is 0.5 µg/mL. For the same compound, in the experiment on Cell membrane [2], the EC50 turned out to be 0.17 µg/mL (≈ 0.406 µM).

As to `CCCCCCc1c(O)c(Cl)cc2c1OC1(C2=O)C(Cl)=C(Cl)C(=O)N1CCCCCC` (stereo not drawn), in the experiment on Escherichia coli [4], the FIC was >4. The MIC in the experiment with Staphylococcus aureus is 1 µg/mL. In the experiment on Cell membrane [1], the MEC was 0.0312 µg/mL. The same compound displayed a half-maximal effective concentration (EC50) with Cell membrane [2] of 0.07 µg/mL (≈ 0.143 µM).

Regarding `CCCCCCCCCCCCN1C(=O)C(Cl)=C(Cl)C12Oc1c(cc(Cl)c(O)c1CCCCCC)C2=O` (stereo not drawn), in the experiment on Staphylococcus aureus, the MIC was found to be 16 µg/mL. In addition, the MEC in the experiment with Cell membrane [1] was > 1 µg/mL. Further, the EC50 in the experiment with Cell membrane [2] was > 8 µg/mL.

Turning to `CC(C)[C@@H]1NC(=O)[C@H](C)OC(=O)[C@@H](C(C)C)NC(=O)[C@@H](C(C)C)OC(=O)[C@H](C(C)C)NC(=O)[C@H](C)OC(=O)[C@@H](C(C)C)NC(=O)[C@@H](C(C)C)OC(=O)[C@H](C(C)C)NC(=O)[C@H](C)OC(=O)[C@@H](C(C)C)NC(=O)[C@@H](C(C)C)OC1=O`, the result in the experiment on Cell membrane [3] was Active.
